Data taken from paper PMC11853660 (Biomimetics, 2025).
Where a SMILES comes first, the peptide text is derived from it. [ ]: non-standard residue; d: D form. pS = N[C@@H](COP(=O)(O)O)C(=O)O

Experiments:
[1] = P26 in aqueous solution, without enzymes; conditions: 37 °C, up to 7 days
[2] = Self-degradation of P26 without enzymes (LC/MS); type: physicochemical; conditions: P26 solution 0.2 mg/mL, 37 °C, 7 days
Description: P26 amelogenin peptide was synthetized by Biomer Technology (San Francisco, CA, USA). P26 solutions (0.2 mg/mL) were prepared as previously described and incubated at 37 °C for 7 days and subsequently analyzed by liquid chromatography/mass spectrometry (LC/MS; Scripps Research Institute, San Diego, CA, USA). Significant peaks in the MS spectra were matched to degradation products of P26 based on their m/z.

[3] = tested on: MMP8, MMP1, α-amylase, and lysozyme; experiment: Peptide stability in artificial saliva with individual salivary enzymes (HPLC peak area); type: in vitro ADME; conditions: individual enzymes at native concentrations, peptide 0.2 mg/mL, 30 min, 37 °C, RP-HPLC C18 peak area, triplicate
Description: (§1) Solutions of MMP8, MMP1 (R&D systems, Minneapolis, MN, USA), α-amylase, and lysozyme (Sigma, Burlington, MA, USA) were prepared following the manufacturer’s instructions. Prior to each use, pro-MMP1 and pro-MMP8 were activated with 10 mM APMA according to the manufacturer’s protocol (R&D Systems). Successful cleavage of both enzymes into their active form was confirmed using SDS-PAGE gel electrophoresis. To better mimic in vivo oral conditions, all enzymes were used at concentrations found in healthy individuals, as reported in the literature: MMP8 (final 0.286 μg/mL; [30], MMP1 (final 20 pg/mL [31], α-amylase (final 119 U/mL; [32], and lysozyme (final 0.4 μg/mL [30]. A total of 125 μL of aqueous P26 or P26-CS solutions (0.2 mg/mL final) was added to an equal volume of artificial saliva (AS; 1.2 mM CaCl2·2H2O, 50 mM HEPES buffer, 0.72 mM KH2PO4, 16 mM KCl, 4.5 mM NH4Cl, 0.2 mM MgCl2·6H20, and 1 ppm NaF). Then, the enzymes were mixed in and immediately placed in a water bath at 37 °C. An initial collection was (t = 0) carried out and analyzed by Reverse-phase High-Performance Liquid Chromatography (HPLC), as described below. Incubations for each sample were performed in triplicate. To quantify the effect of each enzyme, individual enzymes were incubated with 125 μL of P26-CS and 125 μL of AS. […]

α-amylase = experiment: Peptide stability in artificial saliva with α-amylase (HPLC); type: in vitro ADME; conditions: 37 °C
Description: as §1

[4] = tested on: MMP1, MMP8, α-amylase, and lysozyme; experiment: Peptide stability in artificial saliva with all salivary enzymes simultaneously (HPLC); type: in vitro ADME; conditions: all enzymes at native concentrations, 30 min, 37 °C, n = 3
Description: as §1

MPLPS(PHOS)YEVLTPLKWPSTDKTKREEVD
cleaved bond [1]: M-P and V-D and E-E and L-P and P-S(PHOS)

CSCC[C@H](N)C(=O)N1CCC[C@H]1C(=O)N[C@@H](CC(C)C)C(=O)N1CCC[C@H]1C(=O)N[C@@H](COP(=O)(O)O)C(=O)N[C@@H](Cc1ccc(O)cc1)C(=O)N[C@@H](CCC(=O)O)C(=O)N[C@H](C(=O)N[C@@H](CC(C)C)C(=O)N[C@H](C(=O)N1CCC[C@H]1C(=O)N[C@@H](CC(C)C)C(=O)N[C@@H](CCCCN)C(=O)N[C@@H](Cc1c[nH]c2ccccc12)C(=O)N1CCC[C@H]1C(=O)N[C@@H](CO)C(=O)N[C@H](C(=O)N[C@@H](CC(=O)O)C(=O)N[C@@H](CCCCN)C(=O)N[C@H](C(=O)N[C@@H](CCCCN)C(=O)N[C@@H](CCCNC(=N)N)C(=O)N[C@@H](CCC(=O)O)C(=O)N[C@@H](CCC(=O)O)C(=O)N[C@H](C(=O)N[C@@H](CC(=O)O)C(=O)O)C(C)C)[C@@H](C)O)[C@@H](C)O)[C@@H](C)O)C(C)C [P26] (H-MPLP[pS]YEVLTPLKWPSTDKTKREEVD-OH)
self-degradation of the peptide without enzymes [2]: substantially resistant to self-degradation | peptide substrate remaining (% area of initial HPLC peak at t = 0) [3]: 90–100% | degradation products at diluted amylase versus native ratio (α-amylase; α-amylase 23.87 U/mL (5× dilution, enzyme to substrate 1:10) compared with 1:2, artificial saliva, HPLC spectra): lesser degradation products | degradation by amylase relative to other enzymes (α-amylase; α-amylase 119 U/mL (enzyme to substrate 1:2), artificial saliva, 5 h, HPLC): highest levels of degradation amongst all the enzymes used | peptide stability, P26 versus P26 with CS [4]: comparably stable
